Reference: patent US20240158446A1, “CYCLIC COMPOUND HAVING SELECTIVE INHIBITORY ACTION ON KRAS OVER HRAS AND NRAS” (CHUGAI SEIYAKU KABUSHIKI KAISHA, priority 2021, published 2024)
Where two headings read alike, the source gives them in different places. Where a SMILES comes first, the peptide text is derived from it. Bridges are numbered along the chain shown (N, C = ends). [ ]: non-standard residue; d: D form. The star is where a group is joined. hPhe(3-Cl-4-CF3) = N[C@@H](CCc1ccc(C(F)(F)F)c(Cl)c1)C(=O)O; NPrPhe(4-CF3) = CCCN[C@@H](Cc1ccc(C(F)(F)F)cc1)C(=O)O; Pip(4,4-F2) = O=C(O)[C@@H]1CC(F)(F)CCN1; NMeGly(cPent) = CN[C@H](C(=O)O)C1CCCC1; NMeD = CN[C@@H](CC(=O)O)C(=O)O; NMeL = CN[C@@H](CC(C)C)C(=O)O; Morpholide = C1CN(*)CCO1; Ac5c = NC1(C(=O)O)CCCC1; Sar = CNCC(=O)O

Legend:
[1] = molecular target: GDP-bound HRAS wild-type protein (Homo sapiens, UniProt P01112); experiment: Binding to HRAS by surface plasmon resonance (SPR), Single Cycle Kinetics
Chain of GDP-bound HRAS wild-type protein (P01112 whole entry): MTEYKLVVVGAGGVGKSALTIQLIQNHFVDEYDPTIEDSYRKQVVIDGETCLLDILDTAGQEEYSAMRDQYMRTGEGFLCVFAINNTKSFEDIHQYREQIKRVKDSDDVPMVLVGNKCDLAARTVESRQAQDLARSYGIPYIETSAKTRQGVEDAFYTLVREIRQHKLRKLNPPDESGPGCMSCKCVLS

[2] = molecular target: GDP-bound NRAS wild-type protein (Homo sapiens, UniProt P01111); experiment: Binding to NRAS by surface plasmon resonance (SPR), Single Cycle Kinetics
Chain of GDP-bound NRAS wild-type protein (P01111 whole entry): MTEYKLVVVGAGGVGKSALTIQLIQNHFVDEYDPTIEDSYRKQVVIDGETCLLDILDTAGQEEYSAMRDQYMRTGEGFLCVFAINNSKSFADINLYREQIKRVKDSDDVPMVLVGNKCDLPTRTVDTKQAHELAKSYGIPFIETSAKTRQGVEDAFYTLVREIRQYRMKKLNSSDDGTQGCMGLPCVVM

[3] = molecular target: GDP-bound KRAS wild-type protein (Homo sapiens, UniProt P01116); experiment: Binding to KRAS by surface plasmon resonance (SPR), Single Cycle Kinetics; details: GDP-bound KRAS wild-type protein, read-out: KRAS KD
Chain of GDP-bound KRAS wild-type protein (P01116 whole entry): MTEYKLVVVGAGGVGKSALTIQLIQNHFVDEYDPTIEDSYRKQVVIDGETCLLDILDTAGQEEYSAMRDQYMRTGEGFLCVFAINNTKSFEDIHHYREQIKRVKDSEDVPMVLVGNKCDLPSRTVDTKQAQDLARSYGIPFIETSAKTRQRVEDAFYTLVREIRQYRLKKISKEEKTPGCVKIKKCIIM

[4] = SPR, GDP-bound HRAS wild-type protein vs GDP-bound KRAS wild-type protein
[5] = SPR, GDP-bound NRAS wild-type protein vs GDP-bound KRAS wild-type protein
[6] = SPR Single Cycle Kinetics, 1:1 binding model

SMILES: CCCN1C(=O)CN(C)C(=O)CN(C)C(=O)[C@H]([C@@H](C)CC)NC(=O)[C@H](CC(C)C)N(C)C(=O)C[C@@H](C(=O)N2CCOCC2)N(C)C(=O)[C@H](C2CCCC2)N(C)C(=O)C2(CCCC2)NC(=O)[C@@H]2CC(F)(F)CCN2C(=O)[C@H](CCc2ccc(C(F)(F)F)c(Cl)c2)NC(=O)CN(C)C(=O)[C@@H]1Cc1ccc(C(F)(F)F)cc1 [PP0264] ([NMeL]I[Sar][Sar][NPrPhe(4-CF3)][Sar][hPhe(3-Cl-4-CF3)][Pip(4,4-F2)][Ac5c][NMeGly(cPent)][NMeD]-Morpholide; lactam N-11)
- HRAS/KRAS (ratio of KD value for HRAS to KD value for KRAS) [1, 4]: C (A compound having a KD ratio of 0.1 or more and less than 3 is denoted as C)
- NRAS/KRAS (ratio of KD value for NRAS to KD value for KRAS) [2, 5]: B (a compound having 3 or more and less than 10 is denoted as B)
- Kd [3, 6]: 420 pM

SMILES: CCC[C@@H]1C[C@H]2C(=O)NC3(CCCC3)C(=O)N(C)[C@@H](C3CCCC3)C(=O)N(C)[C@H](C(=O)N(C)CC)CC(=O)N(C)[C@@H](C)C(=O)N[C@@H]([C@@H](C)CC)C(=O)N(C)CC(=O)N(C)[C@H]3C/C=C\CCN(C3=O)[C@@H](Cc3ccc(C(F)(F)F)cc3)C(=O)N(C)CC(=O)N[C@@H](CCc3cc(F)c(C(F)(F)F)c(F)c3)C(=O)N2C1 [PP2272]
- HRAS/KRAS (ratio of KD value for HRAS to KD value for KRAS) [1, 4]: A (a compound having 10 or more and less than 20 is denoted as A)
- NRAS/KRAS (ratio of KD value for NRAS to KD value for KRAS) [2, 5]: AA (a compound having 20 or more is denoted as AA)
- Kd ([3]; SPR, Single Cycle Kinetics): 490 pM

SMILES: CCO[C@@H]1C[C@H]2C(=O)NC3(CCC3)C(=O)N(C)[C@@H](CC(C)C)C(=O)N(C)[C@H](C(=O)N(C)C)CC(=O)N(C)[C@@H](CC)C(=O)N[C@@H]([C@@H](C)CC)C(=O)N(C)CC(=O)N(C)[C@H]3C/C=C\CCN(C3=O)[C@@H](Cc3ccc(C(F)(F)F)cc3)C(=O)N(C)CC(=O)N[C@@H](CCc3cc(F)c(C(F)(F)F)c(F)c3)C(=O)N2C1 [PP1089, (2S,8S,12R,14S,20S,23S,27S,30S,36S,38Z)-8-[2-[3,5-difluoro-4-(trifluoromethyl)phenyl]ethyl]-12-ethoxy-27-ethyl-20-isobutyl-N,N,4,19,22,26,32,35-octamethyl-30-[(1S)-1-methylpropyl]-3,6,9,15,18,21,25,28,31,34,42-undecaoxo-2-[[4-(trifluoromethyl)phenyl]methyl]spiro[1,4,7,10,16,19,22,26,29,32,35-undecazatricyclo[34.5.1.0^10,14]dotetracont-38-ene-17,1′-cyclobutane]-23-carboxamide]
- HRAS/KRAS (ratio of KD value for HRAS to KD value for KRAS) [1, 4]: A (a compound having 10 or more and less than 20 is denoted as A)
- NRAS/KRAS (ratio of KD value for NRAS to KD value for KRAS) [2, 5]: AA (a compound having 20 or more is denoted as AA)
- Kd ([3]; SPR, Single Cycle Kinetics): 120 pM

SMILES: CCO[C@@H]1C[C@H]2C(=O)NC3(CCC3)C(=O)N(C)[C@@H](C3CCCC3)C(=O)N(C)[C@H](C(=O)N(C)C)CC(=O)N(C)[C@@H](CC)C(=O)N[C@@H]([C@@H](C)CC)C(=O)N(C)CC(=O)N(C)[C@H]3CCCCN(C3=O)[C@@H](Cc3ccc(C(F)(F)F)cc3)C(=O)N(C)CC(=O)N[C@@H](CCc3c(F)c(F)c(C(F)(F)F)c(F)c3F)C(=O)N2C1 [PP0886]
- HRAS/KRAS (ratio of KD value for HRAS to KD value for KRAS) [1, 4]: B (a compound having 3 or more and less than 10 is denoted as B)
- NRAS/KRAS (ratio of KD value for NRAS to KD value for KRAS) [2, 5]: C (A compound having a KD ratio of 0.1 or more and less than 3 is denoted as C)
- Kd ([3]; SPR, Single Cycle Kinetics): 86 pM

SMILES: CCC[C@H]1C(=O)N[C@@H]([C@@H](C)CC)C(=O)N(C)CC(=O)N(C)[C@H]2C/C=C\CCN(C2=O)[C@@H](Cc2ccc(C(F)(F)F)cc2)C(=O)N(C)CC(=O)N[C@@H](CCc2ccc(Cl)c(C(F)(F)F)c2)C(=O)N2C[C@H](OCC)C[C@H]2C(=O)NC2(CC(C)(C)C2)C(=O)N(C)[C@@H](C2CCCC2)C(=O)N(C)[C@H](C(=O)N(C)C)CC(=O)N1C [PP2784]
- HRAS/KRAS (ratio of KD value with respect to GDP-bound HRAS wild-type protein to KD value with respect to KRAS) ([1]; SPR KD ratio HRAS/KRAS, class symbols): A (a compound having 10 or more and less than 20 is denoted as A)
- NRAS/KRAS (ratio of KD value with respect to GDP-bound NRAS wild-type protein to KD value with respect to KRAS) ([2]; SPR KD ratio NRAS/KRAS, class symbols): A (a compound having 10 or more and less than 20 is denoted as A)
- Kd [3, 6]: 130 pM

SMILES: CCCN(C)C(=O)[C@@H]1CC(=O)N(C)[C@@H](COCC)C(=O)N[C@@H]([C@@H](C)CC)C(=O)N(C)CC(=O)N(C)[C@H]2C/C=C\CCN(C2=O)[C@@H](Cc2ccc(C(F)(F)F)cc2)C(=O)N(C)CC(=O)N[C@@H](CCc2cc(F)c(C(F)(F)F)c(F)c2)C(=O)N2C[C@@H](C)C[C@H]2C(=O)NC2(CC(C)(C)C2)C(=O)N(C)[C@@H](C2CCCC2)C(=O)N1C [PP2041]
- HRAS/KRAS (ratio of KD value for HRAS to KD value for KRAS) [1, 4]: A (a compound having 10 or more and less than 20 is denoted as A)
- NRAS/KRAS (ratio of KD value for NRAS to KD value for KRAS) [2, 5]: A (a compound having 10 or more and less than 20 is denoted as A)
- Kd ([3]; SPR, Single Cycle Kinetics): 190 pM

SMILES: CC[C@H](C)[C@@H]1NC(=O)[C@H](CC(C)C)N(C)C(=O)C[C@@H](C(=O)N2CCOCC2)N(C)C(=O)[C@H](C2CCCC2)N(C)C(=O)C2(CCCC2)NC(=O)[C@@H]2CCCN2C(=O)[C@H](CCc2ccc(C(F)(F)F)c(Cl)c2)NC(=O)CN(C)C(=O)[C@H](Cc2ccc(Cl)cc2)N2CC=CC[C@@H](C2=O)N(C)C(=O)CN(C)C1=O [PP0533]
- HRAS/KRAS (ratio of KD value with respect to HRAS to KD value with respect to KRAS) [1, 4]: C (A compound having a KD ratio of 0.1 or more and less than 3 is denoted as C)
- NRAS/KRAS (ratio of KD value with respect to NRAS to KD value with respect to KRAS) [2, 5]: C (A compound having a KD ratio of 0.1 or more and less than 3 is denoted as C)
- Kd [3, 6]: 170 pM

SMILES: CCO[C@@H]1C[C@H]2C(=O)NC3(CCC3)C(=O)N(C)[C@@H](C3CCCC3)C(=O)N(CC)[C@H](C(=O)N3CCOCC3)CC(=O)N(C)[C@@H](CCc3ccccc3)C(=O)N[C@@H]([C@@H](C)CC)C(=O)N(C)CC(=O)N(C)[C@H]3CCCCCN(C3=O)[C@@H](Cc3ccc(C(F)(F)F)cc3)C(=O)N(C)CC(=O)N[C@@H](CCc3cc(F)c(C(F)(F)F)c(F)c3)C(=O)N2C1 [PP0953]
- HRAS/KRAS (ratio of KD value for HRAS to KD value for KRAS) [1, 4]: A (a compound having 10 or more and less than 20 is denoted as A)
- NRAS/KRAS (ratio of KD value for NRAS to KD value for KRAS) [2, 5]: A (a compound having 10 or more and less than 20 is denoted as A)
- Kd ([3]; SPR, Single Cycle Kinetics): 27000 pM

SMILES: CCCO[C@@H]1CCN2C(=O)[C@H](CCc3cc(F)c(C(F)(F)F)c(F)c3)NC(=O)CN(C)C(=O)[C@H](Cc3ccc(C(F)(F)F)cc3)N3CCCC[C@@H](C3=O)N(C)C(=O)CN(C)C(=O)[C@H]([C@@H](C)CC)NC(=O)[C@H](CC(C)C)N(C)C(=O)C[C@@H](C(=O)N3CCOCC3)N(C)C(=O)[C@H](C3CCCC3)N(C)C(=O)C3(CCC3)NC(=O)[C@H]12 [PP1080]
- HRAS/KRAS (ratio of KD value for HRAS to KD value for KRAS) [1, 4]: B (a compound having 3 or more and less than 10 is denoted as B)
- NRAS/KRAS (ratio of KD value for NRAS to KD value for KRAS) [2, 5]: B (a compound having 3 or more and less than 10 is denoted as B)
- Kd ([3]; SPR, Single Cycle Kinetics): 240 pM

SMILES: CCCO[C@H]1CCN2C(=O)[C@H](CCc3cc(F)c(C(F)(F)F)c(F)c3)NC(=O)CN(C)C(=O)[C@H](Cc3ccc(C(F)(F)F)cc3)N3CCCC[C@@H](C3=O)N(C)C(=O)CN(C)C(=O)[C@H]([C@@H](C)CC)NC(=O)[C@H](CC(C)C)N(C)C(=O)C[C@@H](C(=O)N3CCOCC3)N(C)C(=O)[C@H](C3CCCC3)N(C)C(=O)C3(CCC3)NC(=O)[C@H]12 [PP1077]
- HRAS/KRAS (ratio of KD value for HRAS to KD value for KRAS) [1, 4]: B (a compound having 3 or more and less than 10 is denoted as B)
- NRAS/KRAS (ratio of KD value for NRAS to KD value for KRAS) [2, 5]: B (a compound having 3 or more and less than 10 is denoted as B)
- Kd ([3]; SPR, Single Cycle Kinetics): 85 pM
